Assay results published in patent publication US11053242B2, “[9,10-dimethoxy-3-(2-methylpropyl)-1H,2H,3H,4H,6H,7H,11BH-pyrido-[2,1-a]isoquinolin-2-yl]methanol and compounds, compositions and methods relating thereto” (Neurocrine Biosciences, Inc., priority 2015, dated 2021).

Each molecule was assayed against VMAT2 (human platelet homogenate) (Homo sapiens (Human), UniProt Q05940) (assay: Human VMAT2 Ki, slightly modified competition binding procedure (Table 11)). Conditions: 10 nM 3H-dihydrotetrabenazine.
Sequence of VMAT2 (human platelet homogenate) (Q05940 whole entry): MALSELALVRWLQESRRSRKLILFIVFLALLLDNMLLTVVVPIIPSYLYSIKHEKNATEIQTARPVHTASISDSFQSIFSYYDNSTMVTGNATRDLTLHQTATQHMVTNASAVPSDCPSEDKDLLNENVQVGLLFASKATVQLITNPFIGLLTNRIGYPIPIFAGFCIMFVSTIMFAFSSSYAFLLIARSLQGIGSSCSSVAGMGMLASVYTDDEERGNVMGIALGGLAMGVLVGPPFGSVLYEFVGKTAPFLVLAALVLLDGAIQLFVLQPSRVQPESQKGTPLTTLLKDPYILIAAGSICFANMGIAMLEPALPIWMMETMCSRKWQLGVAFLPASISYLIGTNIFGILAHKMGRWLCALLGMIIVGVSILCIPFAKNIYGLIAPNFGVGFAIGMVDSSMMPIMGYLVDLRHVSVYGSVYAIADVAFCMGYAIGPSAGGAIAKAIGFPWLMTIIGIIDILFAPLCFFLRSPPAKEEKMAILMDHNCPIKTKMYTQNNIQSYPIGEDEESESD
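Note: competition binding with 90 min incubation at 25 °C, after which filter-retained radioligand was measured by scintillation counting.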
Protocol: Following incubation at 25° C. for 90 minutes, bound radioligand was collected by rapid filtration onto GF/B glass fiber filters using a Unifilter-96 Harvester (PerkinElmer). Filter plates were pre-treated with 0.1% polyethylenimine and allowed to dry overnight, and following harvesting the filter plates were washed with 800 d VMAT2 binding buffer. Bound radioligand was quantified by scintillation counting using a Topcount NXT (PerkinElmer).

SMILES | Ki [nM]
COc1cc2c(cc1OC)[C@H]1C[C@@H](COC(=O)C3COCCN3)[C@H](CC(C)C)CN1CC2 (stereo partly drawn) [Compound 4-32, [(2R,3S,11bR)-9,10-dimethoxy-3-(2-methylpropyl)-1H,2H,3H,4H,6H,7H,11bH-pyrido[2,1-a]isoquinolin-2-yl]methyl morpholine-3-carboxylate] | 10 to 500
COc1cc2c(cc1OC)[C@H]1C[C@@H](COC(=O)[C@@H](N)c3ccccc3)[C@H](CC(C)C)CN1CC2 [Compound 4-33, [(2R,3S,11bR)-9,10-dimethoxy-3-(2-methylpropyl)-1H,2H,3H,4H,6H,7H,11bH-pyrido[2,1-a]isoquinolin-2-yl]methyl (2S)-2-amino-2-phenylacetate] | 10 to 500
COc1cc2c(cc1OC)[C@H]1C[C@@H](COC(=O)CC3CCCCN3)[C@H](CC(C)C)CN1CC2 (stereo partly drawn) [Compound 4-34, [(2R,3S,11bR)-9,10-dimethoxy-3-(2-methylpropyl)-1H,2H,3H,4H,6H,7H,11bH-pyrido[2,1-a]isoquinolin-2-yl]methyl 2-(piperidin-2-yl)acetate] | < 10
COc1cc2c(cc1OC)[C@H]1C[C@@H](COC(=O)C3(C)CCNCC3)[C@H](CC(C)C)CN1CC2 [Compound 4-35, [(2R,3S,11bR)-9,10-dimethoxy-3-(2-methylpropyl)-1H,2H,3H,4H,6H,7H,11bH-pyrido[2,1-a]isoquinolin-2-yl]methyl 4-methylpiperidine-4-carboxylate] | < 10
COc1cc2c(cc1OC)[C@H]1C[C@@H](COC(=O)CCN3CCNCC3)[C@H](CC(C)C)CN1CC2 [Compound 4-37, [(2R,3S,11bR)-9,10-dimethoxy-3-(2-methylpropyl)-1H,2H,3H,4H,6H,7H,11bH-pyrido[2,1-a]isoquinolin-2-yl]methyl 3-(piperazin-1-yl)propanoate] | < 10
COc1cc2c(cc1OC)[C@H]1C[C@@H](COC(=O)N3CCN(C)CC3)[C@H](CC(C)C)CN1CC2 [Compound 5-7, [(2R,3S,11bR)-9,10-dimethoxy-3-(2-methylpropyl)-1H,2H,3H,4H,6H,7H,11bH-pyrido[2,1-a]isoquinolin-2-yl]methyl 4-methylpiperazine-1-carboxylate] | > 500
COc1cc2c(cc1OC)[C@H]1C[C@@H](COC(=O)N3CCN(S(C)(=O)=O)CC3)[C@H](CC(C)C)CN1CC2 [Compound 5-15, [(2R,3S,11bR)-9,10-dimethoxy-3-(2-methylpropyl)-1H,2H,3H,4H,6H,7H,11bH-pyrido[2,1-a]isoquinolin-2-yl]methyl 4-methanesulfonylpiperazine-1-carboxylate] | 10 to 500
COc1cc2c(cc1OC)[C@H]1C[C@@H](COC(=O)N3CCN(C4CCCCC4)CC3)[C@H](CC(C)C)CN1CC2 [Compound 5-18, [(2R,3S,11bR)-9,10-dimethoxy-3-(2-methylpropyl)-1H,2H,3H,4H,6H,7H,11bH-pyrido[2,1-a]isoquinolin-2-yl]methyl 4-cyclohexylpiperazine-1-carboxylate] | < 10
COc1cc2c(cc1OC)[C@H]1C[C@@H](COC(=O)N3CCNC(=O)C3C)[C@H](CC(C)C)CN1CC2 (stereo partly drawn) [Compound 5-21, [(2R,3S,11bR)-9,10-dimethoxy-3-(2-methylpropyl)-1H,2H,3H,4H,6H,7H,11bH-pyrido[2,1-a]isoquinolin-2-yl]methyl 2-methyl-3-oxopiperazine-1-carboxylate] | < 10
COc1cc2c(cc1OC)[C@H]1C[C@@H](COC(=O)N3C[C@@H]4C[C@H]3CO4)[C@H](CC(C)C)CN1CC2 [Compound 5-24, [(2R,3S,11bR)-9,10-dimethoxy-3-(2-methylpropyl)-1H,2H,3H,4H,6H,7H,11bH-pyrido[2,1-a]isoquinolin-2-yl]methyl(1S,4S)-2-oxa-5-azabicyclo[2.2.1]heptane-5-carboxylate] | < 10
COc1cc2c(cc1OC)[C@H]1C[C@@H](COC(=O)N(C)C(C)C(=O)O)[C@H](CC(C)C)CN1CC2 (stereo partly drawn) [Compound 5-28, 2-[({[(2R,3S,11bR)-9,10-dimethoxy-3-(2-methylpropyl)-1H,2H,3H,4H,6H,7H,11bH-pyrido[2,l-a]isoquinolin-2-yl]methoxy}carbonyl)(methyl)amino]propanoic acid] | > 500
COc1cc2c(cc1OC)[C@H]1C[C@@H](COC(=O)N(C)C)[C@H](CC(C)C)CN1CC2 [Compound 5-29, [(2R,3S,11bR)-9,10-dimethoxy-3-(2-methylpropyl)-1H,2H,3H,4H,6H,7H,11bH-pyrido[2,1-a]isoquinolin-2-yl]methyl N,N-dimethylcarbamate] | 10 to 500
COc1cc2c(cc1OC)[C@H]1C[C@@H](COC(=O)N3CCN(C(C)C)CC3)[C@H](CC(C)C)CN1CC2 [Compound 5-31, [(2R,3S,11bR)-9,10-dimethoxy-3-(2-methylpropyl)-1H,2H,3H,4H,6H,7H,11bH-pyrido[2,1-a]isoquinolin-2-yl]methyl 4-(propan-2-yl)piperazine-1-carboxylate] | < 10
COc1cc2c(cc1OC)[C@H]1C[C@@H](COC(=O)N[C@@H]3CCCC[C@H]3C(=O)O)[C@H](CC(C)C)CN1CC2 [Compound 5-35, (1R,2R)-2-[({[(2R,3S,11bR)-9,10-dimethoxy-3-(2-methylpropyl)-1H,2H,3H,4H,6H,7H,11bH-pyrido[2,1-a]isoquinolin-2-yl]methoxy}carbonyl)amino]cyclohexane-1-carboxylic acid] | 10 to 500
COc1cc2c(cc1OC)[C@H]1C[C@@H](COC(=O)N3CCO[C@H](C)C3)[C@H](CC(C)C)CN1CC2 [Compound 5-37, [(2R,3S,11bR)-9,10-dimethoxy-3-(2-methylpropyl)-1H,2H,3H,4H,6H,7H,11bH-pyrido[2,1-a]isoquinolin-2-yl]methyl (2R)-2-methylmorpholine-4-carboxylate] | < 10
COc1cc2c(cc1OC)[C@H]1C[C@@H](COC(=O)N3CCO[C@@H](C)C3)[C@H](CC(C)C)CN1CC2 [Compound 5-44, [(2R,3S,11bR)-9,10-dimethoxy-3-(2-methylpropyl)-1H,2H,3H,4H,6H,7H,11bH-pyrido[2,1-a]isoquinolin-2-yl]methyl (2S)-2-methylmorpholine-4-carboxylate] | < 10
COc1cc2c(cc1OC)[C@H]1C[C@@H](COC(=O)N[C@H](C)C(=O)O)[C@H](CC(C)C)CN1CC2 [Compound 5-45, (2R)-2-[({[(2R,3S,11bR)-9,10-dimethoxy-3-(2-methylpropyl)-1H,2H,3H,4H,6H,7H,11bH-pyrido[2,1-a]isoquinolin-2-yl]methoxy}carbonyl)amino]propanoic acid] | > 500
COc1cc2c(cc1OC)[C@H]1C[C@@H](COC(=O)N3CCN4CCCCCC4C3)[C@H](CC(C)C)CN1CC2 (stereo partly drawn) [Compound 5-48, [(2R,3S,11bR)-9,10-dimethoxy-3-(2-methylpropyl)-1H,2H,3H,4H,6H,7H,11bH-pyrido[2,1-a]isoquinolin-2-yl]methyl decahydropiperazino[1,2-a]azepine-2-carboxylate] | < 10
COc1cc2c(cc1OC)[C@H]1C[C@@H](COC(=O)N3CCN(C)C[C@H]3C)[C@H](CC(C)C)CN1CC2 [Compound 5-50, [(2R,3S,11bR)-9,10-dimethoxy-3-(2-methylpropyl)-1H,2H,3H,4H,6H,7H,11bH-pyrido[2,1-a]isoquinolin-2-yl]methyl (2R)-2,4-dimethylpiperazine-1-carboxylate] | < 10
COc1cc2c(cc1OC)[C@H]1C[C@@H](COC(=O)N3C[C@@H](C)O[C@@H](C)C3)[C@H](CC(C)C)CN1CC2 [Compound 5-53, [(2R,3S,11bR)-9,10-dimethoxy-3-(2-methylpropyl)-1H,2H,3H,4H,6H,7H,11bH-pyrido[2,1-a]isoquinolin-2-yl]methyl (2R,6S)-2,6-dimethylmorpholine-4-carboxylate] | 10 to 500
COc1cc2c(cc1OC)[C@H]1C[C@@H](COC(=O)N3C[C@H](C)NC[C@H]3C)[C@H](CC(C)C)CN1CC2 [Compound 6-2, [(2R,3S,11bR)-9,10-dimethoxy-3-(2-methylpropyl)-1H,2H,3H,4H,6H,7H,11bH-pyrido[2,1-a]isoquinolin-2-yl]methyl (2R,5S)-2,5-dimethylpiperazine-1-carboxylate] | < 10
COc1cc2c(cc1OC)[C@H]1C[C@@H](COC(=O)N3CCN[C@H](C#N)C3)[C@H](CC(C)C)CN1CC2 [Compound 6-9, [(2R,3S,11bR)-9,10-dimethoxy-3-(2-methylpropyl)-1H,2H,3H,4H,6H,7H,11bH-pyrido[2,1-a]isoquinolin-2-yl]methyl (3S)-3-cyanopiperazine-1-carboxylate] | < 10
COc1cc2c(cc1OC)[C@H]1C[C@@H](COC(=O)N3CC(C)NCC3C)[C@H](CC(C)C)CN1CC2 (stereo partly drawn) [Compound 6-14, [(2R,3S,11bR)-9,10-dimethoxy-3-(2-methylpropyl)-1H,2H,3H,4H,6H,7H,11bH-pyrido[2,1-a]isoquinolin-2-yl]methyl 2,5-dimethylpiperazine-1-carboxylate] | < 10
COc1cc2c(cc1OC)[C@H]1C[C@@H](COC(=O)OC(C)C)[C@H](CC(C)C)CN1CC2 [Compound 8-1, [(2R,3S,11bR)-9,10-dimethoxy-3-(2-methylpropyl)-1H,2H,3H,4H,6H,7H,11bH-pyrido[2,1-a]isoquinolin-2-yl]methyl propan-2-yl carbonate] | 10 to 500
COC[C@@H]1C[C@@H]2c3cc(OC)c(OC)cc3CCN2C[C@H]1CC(C)C [Compound 9-1, (2R,3S,11bR)-9,10-dimethoxy-2-(methoxymethyl)-3-(2-methylpropyl)-1H,2H,3H,4H,6H,7H,11bH-pyrido[2,1-a]isoquinoline] | < 10
COc1cc2c(cc1OC)[C@H]1C[C@@H](COCC(=O)c3ccc(F)cc3)[C@H](CC(C)C)CN1CC2 [Compound 9-3, 2-{[(2R,3S,11bR)-9,l0-dimethoxy-3-(2-methylpropyl)-1H,2H,3H,4H,6H,7H,11bH-pyrido[2,1-a]isoquinolin-2-yl]methoxy}-1-(4-fluorophenyl)ethan-1-one] | > 500
COCOC[C@@H]1C[C@@H]2c3cc(OC)c(OC)cc3CCN2C[C@H]1CC(C)C [Compound 9-5, (2R,3S,11bR)-9,10-dimethoxy-2-[(methoxymethoxy)methyl]-3-(2-methylpropyl)-1H,2H,3H,4H,6H,7H,11bH-pyrido[2,1-a]isoquinoline] | < 10
CCOC[C@@H]1C[C@@H]2c3cc(OC)c(OC)cc3CCN2C[C@H]1CC(C)C [Compound 9-8, (2R,3S,11bR)-2-(ethoxymethyl)-9,10-dimethoxy-3-(2-methylpropyl)-1H,2H,3H,4H,6H,7H,11bH-pyrido[2,1-a]isoquinoline] | < 10
